We go through 12 compounds from patent publication US5698222A, “Calcium supplement” (Abbott Laboratories, priority 1995, dated 1997).

For data set [1] the following is noted: values from Whiting article; cited from earlier work.
The conditions of data set [2]: large amounts; cited from earlier work.
The nature of data set [3]: titratable acidity of calcium sources. It counts as physicochemical. The settings on record: pH 3.5 raised to pH 8.3, 40 g sample. The source says: Acidity is desired in the liquid nutritional product of the present invention for several reasons such as: to maintain the calcium salt solubility, to complement flavor, to control microbial growth, and to enhance the role of preservatives, specifically potassium benzoate or sodium benzoate. On the other hand, too much acidity can result in increased tartness and sourness that make the product undesirable from a sensory point of view. […] Titratable acidity is an indication of the total acidity of a beverage.

The conditions of data set [4]: without aluminum-containing drugs; cited from earlier work.
The conditions of data set [5]: rats, three weeks, as compared to a control; cited from earlier work.
The procedure of data set [6]: In this evaluation solubility was determined by a visual examination.
For data set [7] the following is noted: cited from earlier work.
For data set [8] the following is noted: low birth weight infants; cited from earlier work.
For data set [9] the following is noted: piglets; cited from earlier work.

Where a name gives a salt, the structure may show the parent alone. Read-outs that look alike come from different tables or passages of the source.

`O=C(O)O` [CaCO3 (from Dolomite)]: the “Aluminum Content” value in data set [1] was 171-315 parts per million (ppm).

`O=C(O)O` [CaCO3 (from fossil shell)]: the “Aluminum Content” value in [1] was 4,400 parts per million (ppm).

Take `O=C(O)O` [Calcium Carbonate, calcium carbonate]: in data set [2], the adverse effects result was “can lead to constipation and abdominal distention”. Also, in data set [3], the Titratable acidity is listed as 61.4 mL of 0.1N NaOH.

Regarding `[Ca+2].[Cl-].[Cl-]` [Calcium Chloride, calcium chloride], the Titratable acidity in [3] is listed as 0.7 mL of 0.1N NaOH.

As for `O=C(O)CC(O)(CC(=O)O)C(=O)O` [Calcium Citrate, calcium citrate], the aluminum toxicity risk entry in data set [4] is recorded as “does not pose a risk of aluminum toxicity”. For the same compound, the Titratable acidity in data set [3] is listed as 57.5 mL of 0.1N NaOH. Also, the relative calcium bioavailability in [5] is reported as 110%.

On to `[Ca+2].[OH-].[OH-]` [Calcium Hydroxide, calcium hydroxide], for which the Titratable acidity in [3] is given as 60.6 mL of 0.1N NaOH.

Consider `CC(O)C(=O)O` (centres unmarked) [Calcium Lactate, calcium lactate], for which, in [3], the Titratable acidity was 47.1 mL of 0.1N NaOH.

For `O=C(O)[C@H](O)[C@@H](O)[C@H](O)[C@H](O)CO` [D-Gluconic-Acid, D-gluconic acid (hemicalcium salt)], the “solubility at time of manufacture” value in data set [6] (pH 3.5) is “soluble”. In addition, in data set [6] (pH 5), the “solubility at 1 month” value is recorded as “partially Soluble” and the “solubility at time of manufacture” value is on record as “soluble”.

In the case of `O=P([O-])([O-])[O-].O=P([O-])([O-])[O-].[Ca+2].[Ca+2].[Ca+2]` [Tricalcium Phosphate, tricalcium phosphate], the Titratable acidity in data set [3] is reported as 48.6 mL of 0.1N NaOH. For the same compound, the relative calcium bioavailability in [5] is listed as 110%.

Take `O=P(O)(O)OCC(O)CO` (centres unmarked) [glycerophosphate]: in [7], the pKf is 6.1.

Turning to calcium citrate malate, the Titratable acidity in data set [3] is 53.2 mL of 0.1N NaOH.

With calcium glycerophosphate [CaGP], in [3], the Titratable acidity is on record as 43.5 mL of 0.1N NaOH. For the same compound, the “effectiveness as source of calcium in TPN solutions” value in [8] and in [9] was “as effective as calcium gluconate” throughout.
